Where two headings read alike, the source gives them in different places.
Assays:
rat α3β4 nAChRs [1] = molecular target: T1, rat α3β4 nAChRs (Rattus norvegicus, UniProt P04757+P12392); test: [3H]epibatidine competition binding, rat α3β4 nAChRs expressed in HEK cells
T1 construct: expressed in transfected cells; the efflux text says only stably transfected cells
Protocol: (§1) Briefly, cultured cells at >80% confluence were removed from their flasks (80 cm^2) with a disposable cell scraper and placed in 10 ml of 50 mM Tris HCl buffer (pH 7.4, 4° C.). The cell suspension was centrifuged at 10,000×g for 5 min and the pellet was collected. For cells treated chronically with nicotinic agonists during culturing, the pellet was washed two more times by centrifugation in fresh buffer to remove residual drug. The cell pellet was then homogenized in 10 ml buffer with a polytron homogenizer (Model PT2100, 12 mm aggregate, 26,000 rpm, 20 seconds) and centrifuged at 36,000 g for 10 min at 4° C. The membrane pellet was resuspended in fresh buffer, and aliquots of the membrane preparation equivalent to 30 to 200 μg protein were used for binding assays. […] Bound and free ligands were separated by vacuum filtration through Whatman GF/C filters treated with 0.5% polyethylenimine. The filter-retained radioactivity was measured by liquid scintillation counting. Specific binding was defined as the difference between total binding and nonspecific binding. Data from saturation and competition binding assays were analyzed using Prism 4 (GraphPad Software, San Diego, Calif.).
(§2) All ligand binding assays were carried out using rat or human nAChRs heterologously expressed in human cells or in native rat brain tissues.

rat α4β2 nAChRs = molecular target: T2, rat α4β2 nAChRs (Rattus norvegicus, UniProt P09483+P12390); test: [3H]epibatidine competition binding, rat α4β2 nAChRs expressed in HEK cells
T2 construct: expressed in transfected cells; host or cells: HEK cells (membrane homogenates)
Protocol: as §1, with “drug.” for “drug. The cell pellet was then homogenized in 10 ml buffer with a polytron homogenizer (Model PT2100, 12 mm aggregate, 26,000 rpm, 20 seconds) and centrifuged at 36,000 g for 10 min at 4° C. The membrane pellet was resuspended in fresh buffer, and aliquots of the membrane preparation equivalent to 30 to 200 μg protein were used for binding assays.”
as §2

human α4β2 nAChRs [2] = molecular target: T3, human α4β2 nAChRs (Homo sapiens, UniProt P17787+P43681); test: Inhibition of nicotine-stimulated 86Rb+ efflux, cells expressing human α4β2 nAChRs; format: cell-based
T3 construct: expressed in transfected cells; the efflux text says only stably transfected cells
Protocol: (§3) In brief, cells were plated into 24-well plates coated with poly-D-lysine. […] The cells were then incubated in growth medium (0.5 ml/well) containing ^86Rb^+ (2 μCi/ml) for 4 hour at 37° C. The loading mixture was then aspirated, and the cells were washed four times with 1 ml buffer (15 mM HEPES, 140 mM NaCl, 2 mM KCl, 1 mM MgSO4, 1.8 mM CaCl2, 11 mM Glucose, pH 7.4). One ml of buffer with or without compounds to be tested was then added to each well. After incubation for 2 min, the assay buffer was collected for measurements of ^86Rb^+ released from the cells. Cells were then lysed by adding 1 ml of 100 mM NaOH to each well, and the lysate was collected for determination of the amount of ^86Rb^+ that was in the cells at the end of the efflux assay. Radioactivity of assay samples and lysates was measured by liquid scintillation counting. Total loading (cpm) was calculated as the sum of the assay sample and the lysate of each well. The amount of ^86Rb^+ efflux was expressed as a percentage of […] loaded. […] IC50 values were determined by nonlinear least-squares regression analyses (GraphPad, San Diego, Calif.).

rat α3β4 nAChRs [3] = molecular target: T1, rat α3β4 nAChRs; format: cell-based; settings: stimulation of 86Rb+ efflux
Protocol: as §3
(§4) The agonist activities of ligands on nAChRs were assessed by measuring agonist-stimulated ^86Rb^+ efflux from stably transfected cells.

human α4β2 nAChRs [4] = molecular target: T3, human α4β2 nAChRs; format: cell-based; settings: stimulation of 86Rb+ efflux
Protocol: as §3, §4

rat α3β4 nAChRs [5] = molecular target: T1, rat α3β4 nAChRs; test: Inhibition of nicotine-stimulated 86Rb+ efflux, cells expressing rat α3β4 nAChRs; format: cell-based
Protocol: as §3

[6] = cited from earlier work
[7] = 10 min pretreatment before nicotine, read-out: Desensitization Potency (IC50(D,10 min), nM) α4β2
[8] = applied simultaneously with nicotine, read-out: Acute Antagonist Potency (IC50(A), nM) α4β2
[9] = 10 min pretreatment before nicotine, read-out: Desensitization Potency (IC50(D,10 min), nM) α3β4
[10] = applied simultaneously with nicotine, read-out: Acute Antagonist Potency (IC50(A), nM) α3β4
[11] = example tables, species not given, read-out: Equilibrium binding affinity (Ki, nM) α3β4
[12] = example tables, species not given, read-out: Equilibrium binding affinity (Ki, nM) α4β2
[13] = Acute Antagonist Potency (IC50(A), nM) α4β2, applied simultaneously with nicotine
[14] = Desensitization Potency (IC50(D,10 min), nM) α4β2, 10 min pretreatment before nicotine
[15] = Acute Antagonist Potency (IC50(A), nM) α3β4, applied simultaneously with nicotine
[16] = Desensitization Potency (IC50(D,10 min), nM) α3β4, 10 min pretreatment before nicotine

Compound | Ki (rat α3β4 nAChRs [1]) | Ki (rat α4β2 nAChRs) | IC50 (human α4β2 nAChRs [2]; [7]) | IC50 (human α4β2 nAChRs [2]; [8]) | Agonist Activity α3β4 (rat α3β4 nAChRs [3]) | Agonist Activity α4β2 (human α4β2 nAChRs [4]) | IC50 (rat α3β4 nAChRs [5]; [9]) | IC50 (rat α3β4 nAChRs [5]; [10]) | Ki (rat α3β4 nAChRs [1]; [11]) | Ki (rat α4β2 nAChRs; [12]) | IC50 (rat α3β4 nAChRs [5]; read-out: Acute Antagonist Potency (IC50(A), nM) α3β4) | IC50 (human α4β2 nAChRs [2]; [13]) | IC50 (human α4β2 nAChRs [2]; [14]) | IC50 (rat α3β4 nAChRs [5]; [15]) | IC50 (rat α3β4 nAChRs [5]; [16]) | t1/2 in vivo [6]
CN1CCC[C@H]1COc1cncc(C#CCCCCBr)c1 [ZW-109] | 16000 nM | 1.4 nM | 270 nM | > 10000 nM | Not detected | Not detected | 2300 nM | 6900 nM | – | – | – | – | – | – | – | –
Cc1cc2n(c(=O)c1)CC1CNCC2C1 (stereo not drawn) [SKC-2-150] | – | – | 250 nM | > 10000 nM | Not detected | Not detected | > 10000 nM | – | 6700 nM | 1.9 nM | > 10000 nM | – | – | – | – | –
CN1CCC[C@H]1COc1cncc(CCCCCCO)c1 [ZW-91] | – | – | – | – | Not detected | Not detected | – | – | – | – | – | > 10000 nM | 1000 nM | > 10000 nM | > 10000 nM | –
FCCCCC#Cc1cncc(OC[C@@H]2CCCN2)c1 [ZW-102] | – | – | – | – | Not detected | Not detected | – | – | 7600 nM | 0.91 nM | – | > 10000 nM | 120 nM | > 10000 nM | 5400 nM | –
CCCCC#Cc1cncc(OC[C@@H]2CCCN2C)c1 [ZW-100] | – | – | 190 nM | > 10000 nM | Not detected | Not detected | 3300 nM | > 10000 nM | 40000 nM | 1.4 nM | – | – | – | – | – | –
CN1CCCC1c1cccnc1 (single isomer, unassigned; (-)) [(−)-Nicotine, nicotine] | – | – | – | – | – | – | – | – | – | – | – | – | – | – | – | > 1 h
CN1CCC[C@H]1COc1cncc(C#CCO)c1 [ZW-89] | – | – | – | – | Not detected | Not detected | – | – | 23000 nM | 0.93 nM | – | > 10000 nM | 180 nM | > 10000 nM | > 10000 nM | –
CN1CCC[C@H]1COc1cncc(C#CCCCCF)c1 [ZW-110] | – | – | – | – | Not detected | Not detected | – | – | 88000 nM | 0.95 nM | – | > 10000 nM | 60 nM | > 10000 nM | > 10000 nM | –
CN1CCC[C@H]1COc1cncc(C#CCCCCO)c1 [ZW-101] | 16000 nM | 0.67 nM | 160 nM | > 10000 nM | Not detected | Not detected | 2500 nM | > 10000 nM | – | – | – | – | – | – | – | –

— patent US8642612B2, “Nicotinic desensitizers and methods of selecting, testing, and using them” (Potomac Pharmaceuticals, Inc., priority 2006, dated 2014)
